Test [1] concerns the target T1, mouse Dvl1 PDZ domain (mDvl1 residues 247-341) (Mus musculus, UniProt P51141, C338A).
T1 sequence (P51141 247-341 C338A): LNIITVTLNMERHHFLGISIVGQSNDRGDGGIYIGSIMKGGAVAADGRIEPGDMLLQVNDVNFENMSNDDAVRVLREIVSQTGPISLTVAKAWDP
In words: […]-HSQC NMR chemical shift titration. It counts as binding.

Test [2] addresses T1, mouse Dvl1 PDZ domain (mDvl1 residues 247-341). Briefly: fluorescence polarization competition with Rox-DprC. It counts as binding. On the technique in general: Polarisation of emitted light reports the rotation of a fluorescent probe.

Each structure is given as a SMILES string.

The term Kd denotes the equilibrium constant for the complex coming apart. As for `CC(C)C[C@H](NC(=O)[C@H](Cc1ccccc1)NC(=O)c1cccc(F)c1)C(=O)O` [J02-001], the Kd in test [1] is 7.67 µM.
What is called Ki is a dissociation constant, usually derived from enzyme kinetics or from competition with a known ligand. Low readings indicate a stronger hold on the target, high ones a looser hold on the target. The compound `Cc1ccc(C[C@H](NC(=O)c2cccc(C)c2)C(=O)N[C@@H](CC(C)C)C(=O)O)cc1` [J01-015] registered a Ki in test [2] of 3.5 ± 0.21 µM. The Kd in test [1] worked out at 2.96 µM.
With `Cc1ccc(C[C@H](NC(=O)c2cc(C)c(F)c(F)c2)C(=O)N[C@@H](CC(C)C)C(=O)O)cc1` [J01-017a], the Ki in test [2] was 1.5 ± 0.52 µM.
As to `Cc1ccc(C[C@H](NC(=O)c2cccc(C#N)c2)C(=O)N[C@@H](CC(C)C)C(=O)O)cc1` [J01-012], the Kd in test [1] worked out at 1.83 µM.
Regarding `Cc1ccc(C[C@H](NC(=O)c2cccc(F)c2)C(=O)N[C@@H](CC(C)C)C(=O)O)cc1` [J01-007], in test [2], the Ki was found to be 4.2 ± 0.46 µM. The Kd in test [1] stood at 2.27 µM.
Consider `CC(C)C[C@H](NC(=O)[C@H](Cc1ccccc1)NC(=O)c1ccc(F)cc1)C(=O)O` [J02-002], for which, in test [1], the dissociation constant (Kd) was 3.49 µM.

The values above are taken from PMC3310947 (Chemical biology & drug design, 2012).
